Measurements: the NIST ThermoML archive (doi:10.1016/j.jct.2019.06.009)
Numbers after ± are expanded uncertainties.

Legend:
[1] = Molar enthalpy of transition or fusion; settings: Crystal; DSC
[2] = Crystal; DSC

C=NCC#N [methyleneaminoacetonitrile]
Molar enthalpy of transition or fusion [1]: 2.53 ± 0.239 kcal/mol
Triple point temperature [2]: 400.19 ± 2.1 K
